In US20260070945A1, “MACROCYCLIC IMMUNOMODULATORS” (Bristol-Myers Squibb Company, priority 2022, published 2026):
*1 amine or outer side, *2 acyl side, *3 side chain or, on linkers, in order; H or OH if unused. Where a SMILES comes first, the peptide text is derived from it. Bridges are numbered along the chain shown (N, C = ends). [ ]: non-standard residue; d: D form. The star is where a group is joined. ξ: configuration not given here. Phe(4-COOH) = N[C@@H](Cc1ccc(C(=O)O)cc1)C(=O)O; Bip = N[C@@H](Cc1ccc(-c2ccccc2)cc1)C(=O)O; γGlu = O=C(O)[C@H](CCC(=O)[*:2])N[*:1]; βAsp = O=C(O)[C@H](CC(=O)[*:2])N[*:1]; aIle = CC[C@@H](C)[C@H](N)C(=O)O; 4Pal = N[C@@H](Cc1ccncc1)C(=O)O; Cha = N[C@@H](CC1CCCCC1)C(=O)O; Cit = NC(=O)NCCC[C@H](N)C(=O)O; Ile(3ξ) = CCC(C)[C@H](N)C(=O)O; Thr(3ξ) = CC(O)[C@H](N)C(=O)O; dOrn = NCCC[C@@H](N)C(=O)O; Carboxymethyl = O=C(O)C*; NMeA = CN[C@@H](C)C(=O)O; Orn = NCCC[C@H](N)C(=O)O; Aun = NCCCCCCCCCCC(=O)O; Dab = NCC[C@H](N)C(=O)O; AEEA = NCCOCCOCC(=O)O

target: T1, PD-1/PD-L1 interaction (PE-labeled human PD-L1-Ig binding to Jurkat cell line over-expressing human PD-1) (Homo sapiens, UniProt Q15116); assay: Jurkat-PD-1 Cell Binding High-Content Screening Assay (CBA); details: Jurkat-hPD-1 cells, PE-labeled PD-L1-Ig 20 nM final; read-out: Jurkat HPD1 PDL1 IC50
T1 construct: expressed in transfected cells; host or cells: Jurkat
How it was run: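 Jurkat-hPD-1 cells (8×10^3/well) in DMEM with 10% fetal calf serum were preincubated with compound for 2 h at 37 °C. PE-labeled PD-L1-Ig was then added at 20 nM final for 1 h. Cells were fixed in paraformaldehyde with Hoechst 33342, washed and imaged by high-content imaging.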

T1 sequence (Q15116 25-288): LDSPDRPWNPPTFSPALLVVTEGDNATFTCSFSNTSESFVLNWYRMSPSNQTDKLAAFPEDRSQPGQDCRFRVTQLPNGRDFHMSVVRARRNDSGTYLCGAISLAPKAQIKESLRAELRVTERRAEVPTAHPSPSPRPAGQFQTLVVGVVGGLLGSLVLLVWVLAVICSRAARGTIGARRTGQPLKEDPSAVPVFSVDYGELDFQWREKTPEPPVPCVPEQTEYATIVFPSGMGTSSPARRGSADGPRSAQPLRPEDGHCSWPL

In order of rising IC50:
1. CCC(C)[C@@H]1NC(=O)[C@H](Cc2ccc(-c3ccccc3)cc2)NC(=O)[C@H](C(C)C)NC(=O)[C@H](Cc2c[nH]c3ccccc23)NC(=O)[C@H](CC(=O)O)NC(=O)[C@H](Cc2ccc(OCC(=O)O)cc2)NC(=O)[C@H](C(C)O)NC(=O)CSC[C@@H](C(=O)N[C@H](CC(N)=O)C(=O)NCCOCCOCC(=O)NCCCCCCCCCCC(=O)O)NC(=O)[C@H](CO)NC(=O)[C@H](C(C)C)NC(=O)[C@H](CC2CCCCC2)NC(=O)[C@H](CCN)NC(=O)[C@@H](CC(C)C)NC(=O)[C@H](C)N(C)C1=O (stereo partly drawn) [Example 2031] ({CH2CO}-[Thr(3ξ)]Y(Carboxymethyl)DWV[Bip][Ile(3ξ)][NMeA][dL][Dab][Cha]VSC[dN][AEEA][Aun]-OH; thioether N-14)  9.4 nM
2. CCC(C)[C@@H]1NC(=O)[C@H](Cc2ccc(-c3ccccc3)cc2)NC(=O)[C@H](C(C)C)NC(=O)[C@H](Cc2c[nH]c3ccccc23)NC(=O)[C@H](CC(=O)O)NC(=O)[C@H](Cc2ccc(OCC(=O)O)cc2)NC(=O)[C@H](Cc2ccncc2)NC(=O)CSC[C@@H](C(=O)N[C@H](CC(N)=O)C(=O)NCCOCCOCC(=O)NCCCCCCCCCCC(=O)O)NC(=O)[C@H](CO)NC(=O)[C@H](C(C)C)NC(=O)[C@H](CC2CCCCC2)NC(=O)[C@H](CCN)NC(=O)[C@@H](CC(C)C)NC(=O)[C@H](C)N(C)C1=O (stereo partly drawn) [Example 2028] ({CH2CO}-[4Pal]Y(Carboxymethyl)DWV[Bip][Ile(3ξ)][NMeA][dL][Dab][Cha]VSC[dN][AEEA][Aun]-OH; thioether N-14)  9.9 nM
3. CCC(C)[C@@H]1NC(=O)[C@H](Cc2ccc(-c3ccccc3)cc2)NC(=O)[C@H](C(C)C)NC(=O)[C@H](Cc2c[nH]c3ccccc23)NC(=O)[C@H](CC(=O)O)NC(=O)[C@H](Cc2ccc(OCC(=O)O)cc2)NC(=O)[C@H](Cc2c[nH]cn2)NC(=O)CSC[C@@H](C(=O)NCCOCCOCC(=O)N[C@@H](CCC(=O)NCCOCCOCC(=O)N[C@@H](CCCCN)C(=O)NCCCCCCCCCCC(=O)O)C(=O)O)NC(=O)[C@H](CO)NC(=O)[C@H](C(C)C)NC(=O)[C@H](CC2CCCCC2)NC(=O)[C@H](CCN)NC(=O)[C@@H](CC(C)C)NC(=O)[C@H](C)N(C)C1=O (stereo partly drawn) [Example 2032] ({CH2CO}-HY(Carboxymethyl)DWV[Bip][Ile(3ξ)][NMeA][dL][Dab][Cha]VSC[AEEA][γGlu][AEEA]K[Aun]-OH; thioether N-14)  10.4 nM
4. CCC(C)[C@@H]1NC(=O)[C@H](Cc2ccc(-c3ccccc3)cc2)NC(=O)[C@H](C(C)C)NC(=O)[C@H](Cc2c[nH]c3ccccc23)NC(=O)[C@H](CC(=O)O)NC(=O)[C@H](Cc2ccc(OCC(=O)O)cc2)NC(=O)[C@H](C(C)O)NC(=O)CSC[C@@H](C(=O)NCCOCCOCC(=O)N[C@@H](CCCCN)C(=O)NCCCCCCCCCCC(=O)O)NC(=O)[C@H](CO)NC(=O)[C@H](C(C)C)NC(=O)[C@H](CC2CCCCC2)NC(=O)[C@H](CCN)NC(=O)[C@@H](CC(C)C)NC(=O)[C@H](C)N(C)C1=O (stereo partly drawn) [Example 2030] ({CH2CO}-[Thr(3ξ)]Y(Carboxymethyl)DWV[Bip][Ile(3ξ)][NMeA][dL][Dab][Cha]VSC[AEEA]K[Aun]-OH; thioether N-14)  13.2 nM
5. CC[C@@H](C)[C@@H]1NC(=O)[C@H](Cc2ccc(-c3ccccc3)cc2)NC(=O)[C@H](CC(C)C)NC(=O)[C@H](Cc2c[nH]c3ccccc23)NC(=O)[C@H](CC(=O)O)NC(=O)[C@H](Cc2ccc(C(=O)O)cc2)NC(=O)[C@H](Cc2ccc(OCC(=O)O)cc2)NC(=O)CSC[C@@H](C(=O)NCCOCCOCC(=O)N[C@H](CCCN)C(=O)NCCCCCCCCCCC(=O)O)NC(=O)[C@H](CO)NC(=O)[C@H](C(C)C)NC(=O)[C@H](CC2CCCCC2)NC(=O)[C@H](CCN)NC(=O)[C@@H](CC(C)C)NC(=O)[C@H](C)N(C)C1=O [Example 2034] ({CH2CO}-Y(Carboxymethyl)[Phe(4-COOH)]DWL[Bip][aIle][NMeA][dL][Dab][Cha]VSC[AEEA][dOrn][Aun]-OH; thioether N-14)  16.9 nM
6. CCC(C)[C@@H]1NC(=O)[C@H](Cc2ccc(-c3ccccc3)cc2)NC(=O)[C@H](C(C)C)NC(=O)[C@H](Cc2c[nH]c3ccccc23)NC(=O)[C@H](CC(=O)O)NC(=O)[C@H](Cc2ccc(OCC(=O)O)cc2)NC(=O)[C@H](Cc2ccncc2)NC(=O)CSC[C@@H](C(=O)NCCOCCOCC(=O)N[C@@H](CCCCN)C(=O)NCCCCCCCCCCC(=O)O)NC(=O)[C@H](CO)NC(=O)[C@H](C(C)C)NC(=O)[C@H](CC2CCCCC2)NC(=O)[C@H](CCN)NC(=O)[C@@H](CC(C)C)NC(=O)[C@H](C)N(C)C1=O (stereo partly drawn) [Example 2033] ({CH2CO}-[4Pal]Y(Carboxymethyl)DWV[Bip][Ile(3ξ)][NMeA][dL][Dab][Cha]VSC[AEEA]K[Aun]-OH; thioether N-14)  19.2 nM
7. CC[C@@H](C)[C@@H]1NC(=O)[C@H](Cc2ccc(-c3ccccc3)cc2)NC(=O)[C@H](C(C)C)NC(=O)[C@H](Cc2c[nH]c3ccccc23)NC(=O)[C@H](CC(=O)O)NC(=O)[C@H](Cc2ccc(O)cc2)NC(=O)[C@H](CCCNC(N)=O)NC(=O)CSC[C@@H](C(=O)N[C@H](CCCCN)C(=O)NCCOCCOCC(=O)NCCCCCCCCCCC(=O)O)NC(=O)[C@H](CO)NC(=O)[C@H](C(C)C)NC(=O)[C@H](CC2CCCCC2)NC(=O)[C@H](CCN)NC(=O)[C@@H](CC(C)C)NC(=O)[C@H](C)N(C)C1=O [Example 2027] ({CH2CO}-[Cit]YDWV[Bip][aIle][NMeA][dL][Dab][Cha]VSC[dK][AEEA][Aun]-OH; thioether N-14)  38.6 nM
8. CC[C@@H](C)[C@@H]1NC(=O)[C@H](Cc2ccc(-c3ccccc3)cc2)NC(=O)[C@H](C(C)C)NC(=O)[C@H](Cc2c[nH]c3ccccc23)NC(=O)[C@H](CC(=O)O)NC(=O)[C@H](Cc2ccc(O)cc2)NC(=O)[C@H](CCCNC(N)=O)NC(=O)CSC[C@@H](C(=O)N[C@H](CC(N)=O)C(=O)NCCOCCOCC(=O)N[C@@H](CCC(=O)NCCOCCOCC(=O)N[C@@H](CCC(=O)NCCOCCOCC(=O)N[C@@H](CCCN)C(=O)NCCCCCCCCCCC(=O)O)C(=O)O)C(=O)O)NC(=O)[C@H](CO)NC(=O)[C@H](C(C)C)NC(=O)[C@H](CC2CCCCC2)NC(=O)[C@H](CC(N)=O)NC(=O)[C@@H](CC(C)C)NC(=O)[C@H](C)N(C)C1=O [Example 2025] ({CH2CO}-[Cit]YDWV[Bip][aIle][NMeA][dL]N[Cha]VSC[dN][AEEA][γGlu][AEEA][γGlu][AEEA][Orn][Aun]-OH; thioether N-14)  49.8 nM
9. CC(C)C[C@@H]1NC(=O)[C@H](Cc2c[nH]c3ccccc23)NC(=O)[C@H](CC(=O)O)NC(=O)[C@H](Cc2ccc(OCC(=O)O)cc2)NC(=O)[C@H](CCCNC(N)=O)NC(=O)CSC[C@@H](C(=O)N[C@@H](CC(N)=O)C(=O)N[C@@H](CC(=O)NCCOCCOCC(=O)NCCCCCCCCCCC(=O)O)C(=O)O)NC(=O)[C@H](CO)NC(=O)[C@H](C(C)C)NC(=O)[C@H](CC2CCCCC2)NC(=O)[C@H](CC(N)=O)NC(=O)[C@@H](CC(C)C)NC(=O)[C@H](C)N(C)C(=O)[C@H](C(C)C)NC(=O)[C@H](Cc2ccc(-c3ccccc3)cc2)NC1=O [Example 2026] ({CH2CO}-[Cit]Y(Carboxymethyl)DWL[Bip]V[NMeA][dL]N[Cha]VSCN[βAsp][AEEA][Aun]-OH; thioether N-14)  237 nM
